Test results as given in patent publication US20170266289A1, “TOPICAL FORMULATION” (AbbVie Inc., priority 2014, published 2017).
“And” between values parts separate entries of the source, which are not always exact repeats. Equal entries are not always repeated. Where two headings read alike, the source gives them in different places.

What was measured:
[1] = Plasma PK and skin concentration after topical application of gel-cream to shaved backs of rats; format: in vivo; settings: for Kp at 24 h: skin/plasma; for Cmax / AUC(0-t): topical or ocular, rat plasma
Method: In order to assess the effect of the permeation enhancer on API delivery to the skin (topical delivery) and to the plasma (systamic delivery) in vivo, 177.8 mg of the subject topical formulation (177.8 μL of the 1% Compound 1 gel-cream, or about 1.778 mg of Compound 1) was applied to the backs of rats on a 4 cm^2 area of shaved skin. Plasma PK data was obtained during a period of about 24 hours following the topical application. See results in FIG. 9A, and the tables below.
The same experiment was repeated for a topical formulation using Compound 2 as the API. Also see FIG. 9B.

[2] = tested on: FITC-induced contact hypersensitivity (CHS); experiment: Prophylactic topical treatment of FITC-induced contact hypersensitivity, ear skin thickness; format: in vivo, mice; settings: 1 hr prior to FITC challenge
Description: Contact hypersensitivity (CHS) is an immunological response against a small chemical hapten. During the sensitization phase, dermal dendritic cells (DCs) and Langerhans cells take up the hapten peptide conjugate and process it and migrate to the draining lymph node, where they present the antigen (Ag) to naive T cells, leading to the formation of Ag-specific memory T cells. Subsequent contact with the same chemical results in the activation of memory T cells and the recruitment of inflammatory cells to the site of allergen exposure. This elicitation response is manifested as skin inflammation, which in a clinical context is called allergic contact dermatitis. One of the small chemical haptens is FITC. FITC-induced CHS is believed to be predominantly associated with the activation of Th2 cells. Upon challenging the skin with FITC in mice sensitized with FITC, it is believed that FITC-specific T cells are recruited to the skin and produce Th2 cytokines, including IL-4.
Briefly, on Day 0, ears of experimental animals were sensitized with FITC. On Day 6, ears of the treatment group animals (0.01%, 0.1%, and 1% treatment groups) were first provided topical treatment of the subject formulations one hour prior to the FITC challenge. Specifically, 20 μL total (10 μL inner ear, and 10 μL outer ear) of topical treatment were massaged all around the ear of each experimental animals prior to FITC epicutaneous application. […] Naïve group animals received no treatment during the experiment. On Day 7, about 24 hours post FITC challenge, ear thickness (in mm) of all animals were measured.
Betamethasone Dipropionate (BMS DPP) topical cream formulations with different concentrations (0.005%, 0.01%, 0.1%, and 1% w/w) were prepared according to Example 3.

[3] = tested on: FITC-induced contact hypersensitivity (CHS); experiment: Topical treatment after FITC challenge in FITC-induced contact hypersensitivity, ear skin thickness; format: in vivo, mice; settings: 4 hrs post FITC challenge
Method: Briefly, on Day 0, ears of experimental animals were sensitized with FITC. […] Naïve group animals received no treatment during the experiment. On Day 7, about 24 hours post FITC challenge, ear thickness (in mm) of all animals were measured. […]

Stability in plasma = format: in vitro ADME
Description: Note that, due to the fact that BMS DPP is unstable in the plasma, the total blood concentration of BMS DPP cannot be determined.

[4] = In vitro release testing in Franz Cells, flux through Tuffryn membrane; format: in vitro ADME
Method: (§1) Diffusion assays were performed using Franz Cells and […]® plates, with Tuffryn®, polycarbonate, or polyester membranes, as well as hairless mouse skin. HPLC was employed to analyze in vitro samples.
Specifically, for the in vitro release testing in Franz Cells, vertical diffusion cells were filled with receptor media (phosphate buffer with 2% BSA). The receptor media was then agitated, with the exception of setup and sampling. Temperature is maintained at 32.5±2.0° C. Artificial membrane was then placed on the top of the cell, along with a dosage wafer, the formulation to be evaluated, and a glass sealing cap. A formulation permeability test was run in triplicate. Samples were collected at various programmed intervals, and sampling was an automated process by the system. Fresh media was pushed into the bottom of the cell while simultaneous sampling occurs from the top of the cell. All wells were sampled in a serial manner with the time of each sample recorded by the instrument.
(§2) Generally, flux is calculated by determining the amount of solute that diffuses across a membrane of known surface area per unit time. There are many ways to calculate this value. We measured solute concentration in known volumes of receiver media and calculated the total amount that diffused over the time course of the experiment.

[5] = In vitro release testing in […] plates, flux through polycarbonate membrane; format: in vitro ADME
Method: as §1
(§3) For in vitro release testing in […]® plates, a two-compartment well system was used, with an internal well having a membrane as the formulation compartment, and an outer well filled with receptor media (phosphate buffer with 2% BSA). The TRANS WELL® plates were then agitated in a temperature-controlled incubator with shaker. Samples were manually pulled at pre-determined intervals with a pipette. New media was added to the receptor well after each sampling to make up the volume loss.
as §2

[6] = In vitro release testing in […] plates, flux through polyester membrane; format: in vitro ADME
Method: as §1, §3, §2

[7] = Optical microscopy examination of the formulations; format: physicochemical; settings: increasing the Transcutol HP content; data not shown
Description: Thus maintaining a saturated solution with the presence of TRANSCUTOL HP™ is expected to increase in vitro flux and increase resultant skin exposures.

[8] = individual rats 1-3, topical 177.8 mg/animal in Formulation A (no Transcutol HP), 24 hr after dose
[9] = individual rats 4-6, topical 177.8 mg/animal in Formulation B (10% Transcutol HP), 24 hr after dose

## CC[C@@H]1CN(C(=O)NCC(F)(F)F)C[C@@H]1c1cnc2cnc3[nH]ccc3n12 [Compound 2, (3S,4R)-3-ethyl-4-(3H-imidazo[1,2-a]pyrrolo[2,3-e]pyrazin-8-yl)-N-(2,2,2-trifluoroethyl)pyrrolidine-1-carboxamide]
[1]; [8]
  Plasma Conc.: 0.00 ng/mL
  Skin Conc.: 2393 ng/g and 5908 ng/g and 7728 ng/g
[1]; individual rats 4-6, Formulation B, 24 hr after dose
  Skin/Plasma Ratio: 11076
[1]; [9]
  Plasma Conc.: 4.46 ng/mL and 2.87 ng/mL and 0.00 ng/mL
  Skin Conc.: 31734 ng/g and 16020 ng/g
[1]; rat, plasma, topical, 177.8 mg, mean of rats 1-3, Formulation A, 24 hr after dose, read-out: Plasma Conc., Mean
  concentration at 24 h: 0 ng/mL
[1]; rat, plasma, topical, 177.8 mg, mean of rats 4-6, Formulation B, 24 hr after dose, read-out: Plasma Conc., Mean
  concentration at 24 h: 2.44 ng/mL
[1]; rat, plasma, topical, 177.8 mg/animal, individual rats 1-3, topical 177.8 mg/animal in Formulation A (no Transcutol HP), 24 hr after dose, read-out: Plasma Conc.
  concentration at 24 h: 0 ng/mL
[1]; rat, skin, topical, 177.8 mg, mean of rats 1-3, Formulation A, 24 hr after dose, read-out: Skin Conc., Mean
  concentration at 24 h: 5340 ng/g
[1]; rat, skin, topical, 177.8 mg, mean of rats 4-6, Formulation B, 24 hr after dose, read-out: Skin Conc., Mean
  concentration at 24 h: 25000 ng/g
[1]; rat, skin, topical, 177.8 mg/animal, individual rats 4-6, topical 177.8 mg/animal in Formulation B (10% Transcutol HP), 24 hr after dose, read-out: Skin Conc.
  concentration at 24 h: 27100 ng/g
[1]; rat, topical, 177.8 mg, individual rats 4-6, Formulation B, 24 hr after dose, read-out: Skin/Plasma Ratio
  Kp at 24 h: 6080
[1]; rat, topical, 177.8 mg, mean, Formulation B, 24 hr after dose, read-out: Skin/Plasma Ratio, Mean
  Kp at 24 h: 8580

## CCC(=O)OCC(=O)[C@@]1(OC(=O)CC)[C@@H](C)C[C@H]2[C@@H]3CCC4=CC(=O)C=C[C@]4(C)[C@@]3(F)[C@@H](O)C[C@@]21C [BMS DPP, Betamethasone Dipropionate]
[2]; Study 1, 0.01%
  reduced ear skin thickness: 77%
[2]; Study 1, 0.1%
  reduced ear skin thickness: 93%
[2]; Study 1, 1%
  reduced ear skin thickness: 95%
[2]; Study 2, 0.005%
  reduced ear skin thickness: 61%
[2]; Study 2, 0.01%
  reduced ear skin thickness: 73%
[2]; Study 2, 0.1%
  reduced ear skin thickness: 93%
[2]; combined Study 1 and 2, 0.005%
  reduced ear skin thickness, effect: 61%
[2]; combined Study 1 and 2, 0.01%
  reduced ear skin thickness, effect: 75%
[2]; combined Study 1 and 2, 0.1%
  reduced ear skin thickness, effect: 93%
[2]; combined Study 1 and 2, 1%
  reduced ear skin thickness, effect: 95%
[3]; Study 1, 0.1%
  reduced ear skin thickness: 95%
[3]; Study 1, 1%
  reduced ear skin thickness: 96%
[3]; Study 2, 0.01%
  reduced ear skin thickness: 92%
[3]; Study 2, 0.1%
  reduced ear skin thickness: 96%
[3]; combined Study 1 and 2, 0.01%
  reduced ear skin thickness, effect: 92%
[3]; combined Study 1 and 2, 0.1%
  reduced ear skin thickness, effect: 95%
[3]; combined Study 1 and 2, 1%
  reduced ear skin thickness, effect: 96%
Stability in plasma
  stability in the plasma: unstable

## CC[C@@H]1C[C@H](NS(=O)(=O)C2CC2)C[C@@H]1c1nnc2cnc3[nH]ccc3n12 [Compound 1, N-((1S,3R,4S)-3-ethyl-4-(6H-pyrrolo[2,3-e][1,2,4]triazolo[4,3-a]pyrazin-1-yl)cyclopentyl)cyclopropanesulfonamide]
[1]; rat, plasma, 177.8 mg, 177.8 mg 1% gel-cream topical on 4 cm^2, 10% Transcutol HP
  Cmax: 70.7 ng/mL
[1]; rat, plasma, 177.8 mg, 177.8 mg 1% gel-cream topical on 4 cm^2, no permeation enhancer
  Cmax: 11.4 ng/mL
[1]; rat, plasma, 177.8 mg, 177.8 mg 1% gel-cream topical, 10% Transcutol HP
  AUC(0-t): 392 ng·h/mL
[1]; rat, plasma, 177.8 mg, 177.8 mg 1% gel-cream topical, no permeation enhancer
  AUC(0-t): 62.4 ng·h/mL
[1]; rat, skin, topical, 1.778 mg, rat skin, 177.8 mg 1% gel-cream topical, 10% Transcutol HP, read-out: Skin conc. 24 hr
  concentration at 24 h: 25000 ng/g
[1]; rat, skin, topical, 1.778 mg, rat skin, 177.8 mg 1% gel-cream topical, no permeation enhancer, read-out: Skin conc. 24 hr
  concentration at 24 h: 5340 ng/g
[1]; rat, topical
  Ratio Transcutol HP/no enhancer, Plasma AUC0-t: 6.28
  Ratio Transcutol HP/no enhancer, Skin conc. 24 hr: 4.67
[4]
  Ratio Transcutol HP/no enhancer, Flux Franz Cells Tuffryn membrane: 1.20
[4]; Transcutol 10%
  Flux Franz Cells Tuffryn membrane: 7.64
[4]; no permeation enhancer
  Flux Franz Cells Tuffryn membrane: 6.34
[5]
  Ratio Transcutol HP/no enhancer, Flux TRANSWELL plate Polycarbonate membrane: 1.35
[5]; Transcutol 10%
  Flux TRANSWELL plate Polycarbonate membrane: 11.46
[5]; no permeation enhancer
  Flux TRANSWELL plate Polycarbonate membrane: 8.52
[6]
  Ratio Transcutol HP/no enhancer, Flux TRANSWELL Plate polyester membrane: 1.33
[6]; Transcutol 10%
  Flux TRANSWELL Plate polyester membrane: 5.42
[6]; no permeation enhancer
  Flux TRANSWELL Plate polyester membrane: 4.09
[7]
  amount solubilized in the gel-cream formulation: solubilizes a greater amount
